Assay results as given in patent publication US8883789B2, “Piperazine derivatives and their use as positive allosteric modulators of mGluR5 receptors” (Boehringer Ingelheim International GmbH, priority 2011, dated 2014).

What follows are compounds tested against T1, human recombinant mGluR5 (Homo sapiens, UniProt P41594) (assay: positive modulation of mGluR5, calcium based FLIPR assay). Conditions: HEK 293 cell line expressing human recombinant mGluR5; Ca2+ peak height after glutamate at approximately 5% basal stimulation; nonlinear regression.
T1 construct: expressed in transfected cells; hygromycin and geneticin selection
T1 sequence (P41594 21-1212): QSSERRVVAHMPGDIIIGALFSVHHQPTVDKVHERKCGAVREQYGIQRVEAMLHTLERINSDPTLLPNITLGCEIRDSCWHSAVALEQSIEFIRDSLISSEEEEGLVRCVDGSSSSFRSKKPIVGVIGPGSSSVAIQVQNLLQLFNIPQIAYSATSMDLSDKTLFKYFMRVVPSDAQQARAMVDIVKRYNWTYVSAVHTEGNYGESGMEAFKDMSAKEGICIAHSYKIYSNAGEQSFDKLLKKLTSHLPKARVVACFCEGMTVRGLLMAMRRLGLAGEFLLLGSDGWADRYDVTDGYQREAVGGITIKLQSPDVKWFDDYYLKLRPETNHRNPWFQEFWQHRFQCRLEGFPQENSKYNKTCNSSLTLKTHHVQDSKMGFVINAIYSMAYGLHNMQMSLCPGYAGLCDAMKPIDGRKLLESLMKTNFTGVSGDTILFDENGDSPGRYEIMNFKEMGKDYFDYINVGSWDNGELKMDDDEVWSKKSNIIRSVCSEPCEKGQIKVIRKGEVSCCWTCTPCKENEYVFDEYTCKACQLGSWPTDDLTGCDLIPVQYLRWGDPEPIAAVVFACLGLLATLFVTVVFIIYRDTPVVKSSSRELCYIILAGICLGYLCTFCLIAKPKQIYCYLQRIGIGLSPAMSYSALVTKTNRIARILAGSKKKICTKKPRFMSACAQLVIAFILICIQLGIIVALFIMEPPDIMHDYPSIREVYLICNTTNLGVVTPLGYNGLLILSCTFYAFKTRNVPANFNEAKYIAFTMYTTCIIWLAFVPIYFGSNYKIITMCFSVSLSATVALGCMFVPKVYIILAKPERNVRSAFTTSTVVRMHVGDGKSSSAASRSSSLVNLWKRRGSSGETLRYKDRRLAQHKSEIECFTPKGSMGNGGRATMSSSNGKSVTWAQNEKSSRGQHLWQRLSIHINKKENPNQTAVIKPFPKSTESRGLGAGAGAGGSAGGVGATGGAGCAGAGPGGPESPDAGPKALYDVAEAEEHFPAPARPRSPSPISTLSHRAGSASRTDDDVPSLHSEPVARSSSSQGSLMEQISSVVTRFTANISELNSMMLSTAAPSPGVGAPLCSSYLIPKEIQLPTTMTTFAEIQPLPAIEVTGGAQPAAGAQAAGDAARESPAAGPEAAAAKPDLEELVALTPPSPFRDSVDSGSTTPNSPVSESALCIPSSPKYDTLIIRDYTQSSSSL
Method: The positive modulation of mGluR5 is measured in a HEK 293 cell line expressing human recombinant mGluR5 and is detected with calcium based FLIPR assay. The cells are cultured with DMEM supplemented with 10% FCS, 2 μg/mL tetracycline, 100 μg/mL hygromycin and 500 μg/mL geneticin. The cell culture media is exchanged for tetracycline-free cell culture media 3-7 days before the assay. One day before the assay the cell culture medium is exchanged to DMEM without glutamine and phenol red and supplemented with 10% FCS, 100 μg/mL hygromycin and 500 μg/mL geneticin. On the assay day, the medium of the subconfluent cultures is removed and the cells are detached by addition of 2.5 ml EDTA (0.02%) per 175 cm2 culture flask for 1 minute. The cells are resuspend in Ringer solution (140 mM NaCl, 5 mM KCl, 2.5 mM CaCl2, 1.5 mM MgCl2, 5 mM Glucose, 10 mM Hepes; adjusted to pH 7.4 with NaOH), pooled and Ringer solution added to adjust the volume to 50 mL. The cell suspension is centrifuged for […] at 1500 U/min (425 g). The supernatant is removed and the cells washed a second time with 50 ml fresh Ringer solution and centrifuged again as before. The supernatant is again removed and the pellet resuspended in Ringer solution to 1,000,000 cells/ml (1×10^6 cells/mL). The cells are plated onto BD BioCoat Poly-D-Lysine 384 well plates (20.000 cells/well; 20 μl/well). The lid covered plates are then incubated until use at 37° C./10% CO2. For dye loading, 20 μl of Calcium-4 assay kit solution (prepared according to the manufacturer's description in Ringer solution) are added to the cells and the plates are incubated for 80 min 37° C. and then 10 min at room temperature.
Controls, Compound Dilution and Assay Execution:
Each assay plate contained wells with “high” and “low” controls:
Low controls 1% DMSO/ringer solution+basal glutamate activation (defined as 100% CTL).
High controls 10 μM CDPPB+basal glutamate activation (defined as 200% CTL).
Test compounds are dissolved and diluted in DMSO to 100-fold the desired concentrations. In a second step, the compounds are diluted in Ringer solution such that the compounds are 4-fold more concentrated than the desired final assay concentration. The final DMSO concentration was 1%.
20 μl of each compound solution are then transferred to the assay plate and the Ca2+ kinetic is measured to determine any intrinsic compound activity. After 5 min incubation in the FLIPR device, the second stimulation with 20 μl of glutamate in Ringer solution (glutamate concentration adjusted to approximately 5% basal stimulation of the maximal possible glutamate effect) is added and the kinetic Ca2+ response of the wells was measured for the modulation effect.
The peak height of the Ca release related fluorescence signal (9-66) is used for the EC50.
The EC50 of the modulation is calculated over a nonlinear regression with GraphPad Prism (Table 1).

**Q.** With CC1CN(C(=O)c2cc3c(Cl)cccc3s2)CCN1C(=O)c1ncn(-c2cccc(Cl)c2)n1 (centres unmarked) [Example 268] as the compound, how does the EC50 read?
**A.** 0.327 µM

**Q.** Which EC50 does the source give for COc1cc(Cl)cc(C(=O)N2CCN(C(=O)c3nnn(-c4cccc(F)c4)n3)C(C)(C)C2)n1 [Example 169, [4-(4-Chloro-6-methoxy-pyridine-2-carbonyl)-2,2-dimethyl-piperazin-1-yl]-[2-(3-fluoro-phenyl)-2H-tetrazol-5-yl]-methanone] here?
**A.** 0.027 µM

**Q.** With CC1(C)CN(C(=O)c2cccc(C#N)n2)CCN1C(=O)c1ncn(-c2cccc(Cl)c2)n1 [Example 33] as the compound, how does the EC50 read?
**A.** 0.203 µM

**Q.** How did the EC50 turn out when CC1(C)CN(C(=O)c2cccc(C3CCCC3)n2)CCN1C(=O)c1ncn(-c2cccc(Cl)c2)n1 [Example 177, [1-(3-Chloro-phenyl)-1H-[1,2,4]-triazol-3-yl]-[4-(6-cyclopentyl-pyridine-2-carbonyl]-2,2-dimethyl-piperazin-1-yl]-methanone] was run?
**A.** 0.037 µM

**Q.** Cc1cccc(-n2cnc(C(=O)N3CCN(C(=O)c4oc5ccc(F)cc5c4C)C(C)C3)n2)c1 (centres unmarked) [Example 236] was tested. Which EC50 did it give?
**A.** 1.62 µM

**Q.** Which EC50 does the source give for COc1cc(C)cc(C(=O)N2CCN(C(=O)c3ncn(-c4cccc(Cl)c4)n3)C(C)(C)C2)n1 [Example 22] here?
**A.** 0.058 µM

**Q.** With CC1(C)CN(C(=O)c2cccc(Cl)c2)CCN1C(=O)c1nnn(-c2cccc(Cl)c2)n1 [Example 191] as the compound, how does the EC50 read?
**A.** 0.064 µM

**Q.** With COCCOc1nc(C(=O)N2CCN(C(=O)c3ncn(-c4cccc(Cl)c4)n3)C(C)(C)C2)cc2ccccc12 [Example 34] as the compound, how does the EC50 read?
**A.** 0.221 µM

**Q.** CC1CN(C(=O)c2ncn(-c3cccc(Cl)c3)n2)CCN1C(=O)c1sc2ccccc2c1Cl (centres unmarked) [Example 226] was tested. Which EC50 did it give?
**A.** 0.6 µM

**Q.** How did the EC50 turn out when CC1(C)CN(C(=O)c2coc(C3CC3)n2)CCN1C(=O)c1ncn(-c2ccccc2)n1 [Example 140] was run?
**A.** 0.661 µM

**Q.** With Cc1oc2ccccc2c1C(=O)N1CCN(C(=O)c2ncn(-c3ccccc3)n2)CC1C (centres unmarked) [Example 240] as the compound, how does the EC50 read?
**A.** 0.35 µM

**Q.** Which EC50 does the source give for COc1cccc(C(=O)N2CCN(C(=O)c3ncn(-c4cccc(Br)c4)n3)CC2C)n1 (centres unmarked) [Example 245] here?
**A.** 0.357 µM

**Q.** CC1(C)CN(C(=O)c2csc(-c3ccccc3)n2)CCN1C(=O)c1ncn(-c2cccc(Cl)c2)n1 [Example 54] was tested. Which EC50 did it give?
**A.** 0.201 µM

**Q.** Which EC50 does the source give for CCCc1nc2cc(C(=O)N3CCN(C(=O)c4ncn(-c5ccccc5)n4)C(C)(C)C3)cc(C)c2[nH]1 [Example 146] here?
**A.** 2.17 µM

**Q.** How did the EC50 turn out when COc1ccc(C(=O)N2CCN(C(=O)c3ncn(-c4ccccc4)n3)C(C)(C)C2)o1 [Example 132] was run?
**A.** 1.81 µM

**Q.** How did the EC50 turn out when CC1(C)CN(C(=O)c2cccc(C3CC3)n2)CCN1C(=O)c1nnn(-c2ccccc2)n1 [Example 180, [4-(6-Cyclopropyl-pyridine-2-carbonyl)-2,2-dimethyl-piperazin-1-yl]-(2-phenyl-2H-tetrazol-5-yl)-methanone] was run?
**A.** 0.016 µM

**Q.** For CC1(C)CN(C(=O)c2cnc3[nH]ccc3c2)CCN1C(=O)c1ncn(-c2cccc(Cl)c2)n1 [Example 59], which EC50 is on record?
**A.** 1.08 µM

**Q.** How did the EC50 turn out when CC1(C)CN(C(=O)c2cc3ccccc3c(OC3CCCC3)n2)CCN1C(=O)c1ncn(-c2ccccc2)n1 [Example 115] was run?
**A.** 0.158 µM

**Q.** For CC1(C)CN(C(=O)c2cccc(C3CC3)n2)CCN1C(=O)c1ncn(-c2cccc(Cl)c2)n1 [Example 16], which EC50 is on record?
**A.** 0.041 µM

**Q.** Which EC50 does the source give for COc1ccc2c(C)c(C(=O)N3CCN(C(=O)c4ncn(-c5cccc(Cl)c5)n4)C(C)(C)C3)oc2c1 [Example 47] here?
**A.** 0.184 µM

**Q.** With Cc1cccc(-n2nnc(C(=O)N3CCN(C(=O)c4cccc(Cl)c4)CC3(C)C)n2)c1 [Example 189] as the compound, how does the EC50 read?
**A.** 0.036 µM

**Q.** For CC1(C)CN(C(=O)c2cccc(-c3ccncc3)n2)CCN1C(=O)c1ncn(-c2cccc(Cl)c2)n1 [Example 86], which EC50 is on record?
**A.** 0.164 µM

**Q.** Which EC50 does the source give for CC1CN(C(=O)c2ncn(-c3cccc(F)c3)n2)CCN1C(=O)c1cc(Cl)c2c(c1)OCCO2 (centres unmarked) [Example 234] here?
**A.** 0.301 µM

**Q.** Which EC50 does the source give for COc1cccc(C(=O)N2CCN(C(=O)c3ncn(-c4ccccc4)n3)C(C)(C)C2)n1 [Example 109] here?
**A.** 0.128 µM

**Q.** For COc1ccc(C(=O)N2CCN(C(=O)c3ncn(-c4cccc(Cl)c4)n3)C(C)(C)C2)s1 [Example 76], which EC50 is on record?
**A.** 0.233 µM

**Q.** With CC1(C)CN(C(=O)c2cccc(C3CCC3)c2)CCN1C(=O)c1ncn(-c2ccccc2)n1 [Example 151] as the compound, how does the EC50 read?
**A.** 0.016 µM
